Like-named read-outs stand apart in the source and are kept apart here.
Key:
HeLa cells = conditions: microscopy
influenza B virus = conditions: read-out: EC50 influenza B; previous series; ref [21]; cited from earlier work
[1] = system: Respiratory syncytial virus (RSV; strain Long); assay: microbe, parasite or virus in culture; format: cell-based; conditions: human respiratory syncytial virus, HeLa, read-out: EC50 RSV
influenza B/Ned/537/05 [2] = assay: Influenza B antiviral assay in MDCK cells; format: cell-based; conditions: Influenza B virus, read-out: mean EC50 anti-influenza B activity
influenza B/Ned/537/05 [3] = assay: Influenza B antiviral assay in MDCK cells; format: cell-based; conditions: Influenza B virus, read-out: EC50 Influenza B, microscopic method

| Structure (SMILES) | Cytotoxicity MCC (HeLa cells) [µM] | further results |
| --- | --- | --- |
| CCS(=O)(=O)N1CCC2(CC1)N=C(N)N=C(N)N2CCOC [Compound 20, 2,4-Diamino-9-(ethylsulfonyl)-1-(2-methoxyethyl)-1,3,5,9-tetraazaspiro[5.5]undeca-2,4-diene] | >100 |  |
| COCCN1C(N)=NC(N)=NC12CCN(C(=O)NC1CCC(C)CC1)CC2 (centres unmarked) [Compound 18, 2,4-Diamino-9-[(4-methylcyclohexyl)carbamoyl]-1-(2-methoxyethyl)-1,3,5,9-tetraazaspiro-[5.5]undeca-2,4-diene] | >100 |  |
| CC(C)(C)OC(=O)N1CCC2(CC1)N=C(N)N=C(N)N2c1cccc(Cl)c1 [Compound 2, Tert-butyl 1-(3-Chlorophenyl)-2,4-diamino-1,3,5,9-tetraazaspiro[5.5]undeca-2,4-diene-9-carboxylate] | >100 |  |
| NC1=NC2(CCN(C(=O)c3ccc4ccccc4c3)CC2)N(c2cccc(Cl)c2)C(N)=N1 [Compound 5, 1-(3-Chlorophenyl)-2,4-diamino-9-[(naphthalen-2-yl)carbonyl]-1,3,5,9-tetraazaspiro-[5.5]undeca-2,4-diene] | ≥100 |  |
| NC1=NC2(CCN(C(=O)C3CCC3)CC2)N(c2cccc(Cl)c2)C(N)=N1 [Compound 3, 9-Cyclobutylcarbonyl-1-(3-chlorophenyl)-2,4-diamino-1,3,5,9-tetraazaspiro[5.5]undeca-2,4-diene] | >100 |  |
| CC(=O)N[C@H]1[C@H]([C@H](O)[C@H](O)CO)OC(C(=O)O)=C[C@@H]1NC(=N)N [Zanamivir] |  | EC50 (influenza B virus): 60 nM |
| CCCCC(=O)N1CCC2(CC1)N=C(N)N=C(N)N2c1cccc(OC)c1 [Compound 9, 2,4-Diamino-1-(3-methoxyphenyl)-9-(1-oxopent-1-yl)-1,3,5,9-tetraazaspiro[5.5]undeca-2,4-diene] | >100 |  |
| COc1cccc(N2C(N)=NC(N)=NC23CCNCC3)c1 [Compound 7, 2,4-Diamino-1-(3-methoxyphenyl)-1,3,5,9-tetraazaspiro[5.5]undeca-2,4-diene] | >100 |  |
| NC(=O)c1ncn([C@@H]2O[C@H](CO)[C@@H](O)[C@H]2O)n1 [Ribavirin] |  | EC50 [1]: 5800 nM |
| Cc1ccc(C(=O)N2CCC3(CC2)N=C(N)N=C(N)N3c2cccc(Cl)c2)cc1 [Compound 4, 1-(3-Chlorophenyl)-2,4-diamino-9-(p-tolylcarbonyl)-1,3,5,9-tetraazaspiro[5.5]undeca-2,4-diene] | ≥100 | CC50 fold higher than corresponding MCC (MDCK cells): 22 fold; EC50 (influenza B/Ned/537/05 [2]): ~200 nM |
| COc1cccc(N2C(N)=NC(N)=NC23CCN(C(=O)c2ccc(C(F)(F)F)cc2C)CC3)c1 [Compound 10, 2,4-Diamino-1-(3-methoxyphenyl)-9-[(2-methyl-4-(trifluoromethyl)phenyl)carbonyl]-1,3,5,9-tetraazaspiro[5.5]undeca-2,4-diene] | >100 |  |
| COc1cccc(N2C(N)=NC(N)=NC23CCN(C(=O)OC(C)(C)C)CC3)c1 [Compound 8, Tert-butyl 2,4-diamino-1-(3-methoxyphenyl)-1,3,5,9-tetraazaspiro[5.5]undeca-2,4-diene-9-carboxylate] | >100 |  |
| NC1=NC2(CCN(C(=O)Nc3ccc(F)cc3)CC2)N(c2cccc(Cl)c2)C(N)=N1 [Compound 6, 1-(3-Chlorophenyl)-2,4-diamino-9-[N-(4-fluorophenyl)carbamoyl]-1,3,5,9-tetraazaspiro-[5.5]undeca −2,4-diene] | ≥100 | CC50 fold higher than corresponding MCC (MDCK cells): 319 fold; EC50 (influenza B/Ned/537/05 [3]): 350 nM |
| COCCN1C(N)=NC(N)=NC12CCN(S(=O)(=O)c1ccccc1)CC2 [Compound 21, 2,4-Diamino-9-(phenylsulfonyl)-1-(2-methoxyethyl)-1,3,5,9-tetraazaspiro[5.5]undeca-2,4-diene] | >100 |  |
| CC(C)(C)OC(=O)N1CCC2(CC1)N=C(N)N=C(N)N2Cc1cccc(Cl)c1 [Compound 11, Tert-butyl 1-(3-Chlorobenzyl)-2,4-diamino-1,3,5,9-tetraazaspiro[5.5]undeca-2,4-diene-9-carboxylate] | >100 |  |
| NC1=NC2(CCNCC2)N(c2cccc(Cl)c2)C(N)=N1 [Compound 1, 1-(3-Chlorophenyl)-2,4-diamino-1,3,5,9-tetraazaspiro[5.5]undeca-2,4-diene] | >100 |  |

Reference: paper PMC7115377 (European Journal of Medicinal Chemistry, 2018)
